Source: US10385372B2, “Methods for thaxtomin production and modified streptomyces with increased thaxtomin production” (priority 2014, dated 2019)

Experiments:
[1] = tested on: S. scabies CebR regulator (CebR-His6); assay: Electromobility gel shift assay (EMSA) with CebR-His6 pre-incubated with cellobiose and cellooligosaccharides; type: binding, Streptomyces scabies; conditions: EMSA of FIG. 4; for impairment of the CebR DNA-binding ability (quantification of shifted bands): CebR-His6 pre-incubated with oligosaccharide, Cy5-labelled cbs probes 6 nM
Method: Numbers 1 and 2 refer to EMSAs with free probes (6 nM) and with probes incubated with CebR-His6, respectively. Numbers 3 to 7 refer to EMSAs with CebR-His6 pre-incubated with oligosaccharides, i.e. cellobiose (3), cellotriose (4), cellotetraose (5), cellopentaose (6), and cellohexaose (7). Note that cellobiose (3) is the best oligosaccharide for preventing CebR interaction with all CebR-binding sites.
Electromobility gel shift assays (EMSAs) were performed in order to assess binding of the S. scabies CebR regulator (CebR^sca) to the in silico predicted cbs. The scab57761 gene was cloned into pET-22b and overexpressed in Escherichia coli Rosetta (DE3) cells. The resulting recombinant His-tagged CebR (CebR-His6) was purified from the IPTG-induced E. coli cytoplasmic extracts by Nickel-NTA affinity column. […] Under the same conditions, strong CebR-binding to cbs^cebE-R and cbs^bglC, which were used as positive controls of genes known to be directly controlled by CebR (Schlösser 2000; Marushima 2009), was observed (FIG. 3).
Experimental in vitro validations of predicted cis-acting elements allowed proposing a signaling pathway from cellobiose sensing and transport to thaxtomin biosynthesis (FIG. 5). […] Once inside the cell, cellobiose (and to a lesser extent cellotriose) prevents CebR-binding to cbs^txtR-A and cbs^txtB allowing expression of txtA, txtB and txtR. Consequently, TxtR complexed to cellobiose would be able to increase the expression levels of txtA and txtB, the thaxtomin biosynthetic genes.
EMSAs with 34-bp double-stranded probes (generated by PCR, Table 2) were performed using Cy5-labeled cbs probes (6 nM and 30 nM final concentration) and His6-tagged CebR at a final concentration between 0.08 and 3.2 μM in a total reaction volume of 50 μl. All reactions were carried out in EMSA buffer (10 mM Tris-HCl, pH 7.5, 1 mM dithiothreitol [DTT], 0.25 mM CaCl2, 0.5 mM MgCl2, 50 mM KCl, and 2% glycerol) containing excess of nonspecific DNA (salmon sperm DNA). After 15 min of incubation at room temperature, reaction mixtures were loaded onto a 1% (wt/vol) agarose gel. Bound and unbound probes were separated by gel electrophoresis for 30 min at 100 V at room temperature, and fluorescent DNA was visualized using a Typhoon Trio+ variable-mode imager (FRFC 2.4506.08).

[2] = tested on: S. scabies 87-22 and ΔcebR; assay: Thaxtomin production on ISP-4 plates with and without cellobiose supply (HPLC); type: cell-based, Streptomyces scabies; conditions: ISP-4 medium; wild-type or ΔcebR background; FIGS. 8A and 8B
Excerpt: FIGS. 8A-B illustrate genetic complementation of the cebR mutant scored by thaxtomin production on ISP-4 plates. […] Although pigmentation is not visible in the black and white photos, FIG. 8B is a graphic illustration HPLC analysis of thaxtomin production on the ISP-4 plates from FIG. 8A. […] Thaxtomin production is reverted back to wild-type levels when the mutation is genetically complemented (cebR mutant transformed with pRLIF8 containing the cebR gene and its promoter region).
The production of thaxtomin by both strains grown on ISP-4 with and without cellobiose supply was compared. […] The further increase in toxin production by the mutant upon addition of cellobiose is most likely due to the function of cellobiose as ligand of the transcriptional activator TxtR, which drives the expression of the thaxtomin biosynthetic genes txtA and txtB (Joshi et al. 2007) (FIG. 5).
Mycelial suspensions of S. scabies strains were prepared from 48-72 h-old TSB-grown cultures by pelleting the mycelia, washing twice with sterile water, and resuspending in 1 ml sterile water to obtain an optical density at 600 nm (OD600 mn) of 1.0. […] Thaxtomin A was purified from the supernatant and analyzed by HPLC as described previously (Johnson et al. 2007). […]

| SMILES | impairment of the CebR DNA-binding ability (quantification of shifted bands) [1] | allosteric effector inhibiting CebR from binding to its DNA targets ([1]; compared with cellotriose to cellohexaose) | effect of addition on thaxtomin production [2] |
| --- | --- | --- | --- |
| OC[C@H]1O[C@@H](O[C@H]2[C@H](O)[C@@H](O)[C@H](O[C@H]3[C@H](O)[C@@H](O)[C@H](O[C@H]4[C@H](O)[C@@H](O)[C@H](O[C@H]5[C@H](O)[C@@H](O)[C@H](O[C@H]6[C@H](O)[C@@H](O)C(O)O[C@@H]6CO)O[C@@H]5CO)O[C@@H]4CO)O[C@@H]3CO)O[C@@H]2CO)[C@H](O)[C@@H](O)[C@@H]1O (some centres unmarked) [cellohexaose] | 12% | – | – |
| O=C[C@H](O)[C@@H](O)[C@H](O[C@@H]1O[C@H](CO)[C@@H](O)[C@H](O)[C@H]1O)[C@H](O)CO [cellobiose] | 56% | best allosteric effector | significant increase |
| OC[C@H]1O[C@@H](O[C@H]2[C@H](O)[C@@H](O)[C@H](O[C@H]3[C@H](O)[C@@H](O)C(O)O[C@@H]3CO)O[C@@H]2CO)[C@H](O)[C@@H](O)[C@@H]1O (some centres unmarked) [cellotriose] | 20% | – | – |
